Patent US12384753B2, “17-beta-hydroxysteroid dehydrogenase type 13 inhibitors and methods of use thereof” (Enanta Pharmaceuticals, Inc., priority 2021, dated 2025)

Target: Recombinant human HSD17B13 (Homo sapiens (Human), UniProt Q7Z5P4)
Assay: HSD17B13 rapid-fire mass spectrometry assay (RF/MS assay)
Type: biochemical
Conditions: inhibition of HSD17B13; LTB4 10 μM, NAD+ 0.5 mM, RT 3 h; IC50 ranges A-E
Source text: HSD17B13 rapid-fire mass spectrometry assay (RF/MS assay). Recombinant human HSD17B13 was expressed and purified from sf9 cells at Charles River Labs (Saffron Walden, UK). Leukotriene B4 (Catalog #71160-24-2) and 12-oxoleukotriene B4 (Catalog #20140) were purchased from Cayman Chemicals (Ann Arbor, Michigan.). NAD+ (Catalog #N8285), BSA (Catalog #A7030), DMSO (Catalog #D2650), and Tween-20 (Catalog #11332465001) were purchased from Sigma (St. Louis, MO). Formic acid (Catalog #28905) was from ThermoFisher Scientific and 384 deep well PP microplates (Catalog #784261) were from Greiner Bio-One. In a typical IC50 assay performed in a 384w PP microplate, test compounds (0-100 μM) were incubated with HSD17B13 (80 nM), LTB4 (10 μM), and NAD^+ (0.5 mM) in 10 μL assay buffer (20 mM Tris (pH 7.5), BSA (0.005%), and Tween-20 (0.01%)) at RT for 3 h. The assays were quenched by adding 20 μL of 0.15% aqueous formic acid and the plates were frozen at −80° C. RF/MS analysis was performed at PureHoney Technologies (Billerica, MA) on a RapidFire RF300 system (Agilent Technologies, Inc.) coupled to an API 4000 triple quadrupole mass spectrometer (Sciex) equipped with Agilent RapidFire cartridge type A (C4). The mobile phase was 0.09% formic acid and 0.01% trifluoracetic acid in water (Buffer A) and 0.09% formic acid and 0.01% trifluoracetic acid in 80% aqueous acetonitrile (Buffer B). The RapidFire method conditions were the following: 250 ms aspirate, 3000 ms load/desalt, 4000 ms elute, and 500 ms re-equilibrate. RF-MS/MS was performed in negative polarity (−4500 V), the source temperature was 650° C., and gas 1 and gas 2 settings for nitrogen were set to 50. The curtain gas and collision gas were also nitrogen and were set to 20 and 12, respectively. Leukotriene B4 (335.3) and 12-oxoLeukotriene B4 (333.3) SRM transitions were optimized with Discovery Quant software and extracted ion counts for these analytes were determined.
Data Analysis. HSD17B13 enzyme activity was measured as percent conversion of extracted ion counts and normalized to high and low controls to determine percent residual activity at various concentrations of test compounds. Data were fitted to normalized activity (variable slope) versus concentration fit in GraphPad Prism 7 to determine IC50. All experiments were run in duplicates.
By using above method, the inhibition of HSD17B13 was evaluated for the compounds of Formula (I). IC50 ranges are as follows: A=IC50<0.100 μM; B=0.100 μM<IC50<0.500 μM; C=0.500 μM<IC50<1 μM; D=1 μM<IC50<100 μM; E=IC50>100 μM

Recombinant human HSD17B13, sequence (Q7Z5P4 20-300): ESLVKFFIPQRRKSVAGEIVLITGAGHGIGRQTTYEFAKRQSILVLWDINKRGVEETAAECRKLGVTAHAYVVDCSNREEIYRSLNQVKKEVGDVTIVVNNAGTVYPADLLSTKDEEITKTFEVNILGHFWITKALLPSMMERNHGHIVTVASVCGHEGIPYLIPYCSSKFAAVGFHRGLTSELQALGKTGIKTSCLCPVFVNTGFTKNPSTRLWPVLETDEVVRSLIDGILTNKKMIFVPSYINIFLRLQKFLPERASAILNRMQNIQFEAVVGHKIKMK

IC50 [nM]	SMILES
< 100	COc1cc(C(=O)O)c(F)cc1NS(=O)(=O)c1cccc(-c2ccc([C@H]3CC[C@H](C(C)(C)C)CC3)cc2)c1F [Example 612]
100 to 500	COc1cc(C(=O)O)c(F)cc1NS(=O)(=O)c1csc(-c2ccc(-c3ccncc3)cc2)n1 [Example 652]
100 to 500	COc1cc(C(=O)O)c(F)cc1NS(=O)(=O)c1csc(-c2ccc(C3CCC(C)(C)CC3)c(F)c2OC)n1 [Example 549]
100 to 500	COc1cc(C(=O)O)ccc1NS(=O)(=O)c1csc(N2CCN(c3ccc(-c4ccccc4)cc3)CC2)n1 [Example 288]
100 to 500	COc1cc(C(=O)O)c(F)cc1NS(=O)(=O)c1csc(-c2ccc(-c3ccc([C@H]4CC[C@@H](C(C)(C)C)CC4)cc3C(F)(F)F)cc2C(F)(F)F)n1 [Example 783]
100 to 500	COc1cc(C(=O)O)c(F)cc1NS(=O)(=O)c1ccn(-c2ccc([C@H]3CC[C@@H](C(F)(F)F)CC3)cc2)n1 [Example 691]
< 100	COc1cc(C(=O)O)c(F)cc1NS(=O)(=O)c1csc(-c2ccc([C@H]3CC[C@@H](C(C)C)CC3)c(OC)c2F)n1 [Example 802]
100 to 500	COc1cc(C(=O)O)ccc1NS(=O)(=O)c1csc(-c2c(F)ccc3ccccc23)n1 [Example 153]
500 to 1000	COc1cc(C(=O)O)ccc1NS(=O)(=O)c1cncc(-c2ccc(C3CCCCC3)cc2)c1 [Example 433, 4-((5-(4-cyclohexylphenyl)pyridine)-3-sulfonamido)-3-methoxybenzoic acid]
100 to 500	COc1cc(C(=O)O)c(F)cc1NS(=O)(=O)c1csc(-c2ccc(C3CCC(C)(C)CC3)c(F)c2F)n1 [Example 521]
1000 to 100000	O=C(O)c1ccc(CNS(=O)(=O)c2cnc(-c3ccc(F)cc3)s2)cc1 [Example 29]
< 100	COc1cc(C(=O)O)c(F)cc1NS(=O)(=O)c1csc(-c2ccc(C3CCC(C)(C)CC3)c(F)c2C(F)F)n1 [Example 583]
100 to 500	COc1cc(C(=O)O)c(F)cc1NS(=O)(=O)c1cnc(-c2ccc([C@H]3CC[C@@H](C(C)C)CC3)cc2)s1 [Example 729]
< 100	COc1cc(C(=O)O)c(F)cc1NS(=O)(=O)c1coc(-c2ccc(C3=CCC(C(F)(F)F)CC3)cc2C(F)(F)F)n1 (stereo not shown) [Example 677]
100 to 500	COc1cc(C(=O)O)ccc1NS(=O)(=O)c1ccc(-c2ccc(C3CCC(C)(C)CC3)cc2)s1 [Example 428, 4-((5-(4-(4,4-dimethylcyclohexyl)phenyl)thiophene)-2-sulfonamido)-3-methoxybenzoic acid]
100 to 500	COc1cc(C(=O)O)c(F)cc1NS(=O)(=O)c1csc(-c2ccc([C@H]3CC[C@@H](C(C)C)CC3)c(OC(C)C)c2F)n1 [Example 586]
1000 to 100000	COc1cc(C(=O)O)ccc1NS(=O)(=O)c1cccc(-c2ccc(F)cc2)c1 [Example 319]
< 100	COc1cc(C(=O)O)ccc1NS(=O)(=O)c1ccc(-c2cccc(O)c2)s1 [Example 191]
1000 to 100000	COc1cc(C(=O)O)ccc1NS(=O)(=O)c1csc(CCc2ccccc2)n1 [Example 181]
1000 to 100000	COc1cc(-c2ccc(C(=O)O)cc2)ccc1NS(=O)(=O)c1cnc(-c2ccc(F)cc2)s1 [Example 389, 4′-((2-(4-fluorophenyl)thiazole)-5-sulfonamido)-3′-methoxy-[1,1′-biphenyl]-4-carboxylic acid]
500 to 1000	COc1cccc(C#Cc2nc(S(=O)(=O)Nc3ccc(C(=O)O)cc3OC)cs2)n1 [Example 244]
1000 to 100000	O=C(O)c1ccc(S(=O)(=O)Nc2ccc(-c3nccs3)cc2)cc1 [Example 51]
1000 to 100000	O=C(O)c1ccc(NS(=O)(=O)c2csc(N3CCC(F)(F)CC3)n2)cc1 [Example 58]
1000 to 100000	COc1cc(C(=O)O)ccc1NS(=O)(=O)c1csc(-c2ccc(F)c3ccccc23)n1 [Example 88]
< 100	COc1cc(C(=O)O)ccc1NS(=O)(=O)c1csc(C#Cc2ccc(C(C)(C)C)cc2)n1 [Example 188]
500 to 1000	COc1cc(C(=O)O)ccc1NS(=O)(=O)c1ccc(-c2ccc(-c3ccccc3)cc2)s1 [Example 198]

IC50 [nM]	SMILES
1000 to 100000	CC(C)(C)c1ccc(S(=O)(=O)NC(=O)OCc2ccc(NS(=O)(=O)c3cnc(-c4ccc(F)cc4)s3)cc2)cc1 [Example 38, 4-((2-(4-fluorophenyl)thiazole)-5-sulfonamido)benzyl ((4-(tert-butyl)phenyl)sulfonyl)carbamate]
< 100	COc1cc(C(=O)O)ccc1NS(=O)(=O)c1cnc(-c2ccc([C@H]3CC[C@H](C(F)(F)F)CC3)cc2)s1 [Example 713]
1000 to 100000	COc1cc(CC(=O)O)ccc1NS(=O)(=O)c1csc(C#Cc2cccc(OC(F)(F)F)c2)n1 [Example 401, 2-(3-methoxy-4-((2-((3-(trifluoromethoxy)phenyl)ethynyl)thiazole)-4-sulfonamido)phenyl)acetic acid]
100 to 500	COc1cc(C(=O)O)ccc1NS(=O)(=O)c1cnc(-c2ccc(C3=CC(C)(C)CC(C)(C)C3)cc2)s1 [Example 708]
< 100	O=C(O)c1ccc(NS(=O)(=O)c2ccc3ccc(S(=O)(=O)Nc4ccc(C(=O)O)cc4O)cc3c2)c(O)c1 [Example 171]
> 100000	COc1nc2c(cc1C(=O)O)CN(S(=O)(=O)c1ccc(F)cc1)CC2 [Example 8, 6-((4-fluorophenyl)sulfonyl)-2-methoxy-5,6,7,8-tetrahydro-1,6-naphthyridine-3-carboxylic acid]
1000 to 100000	COc1cc(C(=O)O)ccc1NS(=O)(=O)c1csc(N2CCCC(Oc3ccccc3)C2)n1 (stereo not shown) [Example 276]
< 100	COc1cc(C(=O)O)c(F)cc1NS(=O)(=O)c1csc(-c2ccc(C3=CCC(C(C)C)CC3)c(OC(C)C)c2F)n1 (stereo not shown) [Example 584]
100 to 500	COc1cc(C(=O)O)ccc1NS(=O)(=O)c1csc(C#Cc2cccnc2)n1 [Example 215]
< 100	COc1cc(C(=O)O)ccc1NS(=O)(=O)c1csc(C#Cc2ccc(OC)c(OC(F)(F)F)c2)n1 [Example 395]
100 to 500	O=C(O)c1ccc(NS(=O)(=O)c2cccc(S(=O)(=O)Nc3ccc(C(=O)O)cc3O)c2)c(O)c1 [Example 170]
100 to 500	COc1cc(C(=O)O)ccc1NS(=O)(=O)c1ccc(C#Cc2ccccc2)s1 [Example 168]
< 100	COc1cc(C(=O)O)c(F)cc1NS(=O)(=O)c1csc(-c2ccc([C@H]3CC[C@@H](C(F)(F)F)CC3)c(F)c2C)n1 [Example 602]
100 to 500	COc1cc(C(=O)O)c(F)cc1NS(=O)(=O)c1cnc(-c2ccc(C3=CCC(C(C)C)CC3)cc2)s1 (stereo not shown) [Example 765]
< 100	COc1cc(C(=O)O)c(F)cc1NS(=O)(=O)c1csc(-c2ccc(C3=CCC(C)(C)CC3)c(C)c2F)n1 [Example 569]
< 100	COc1cc(C(=O)O)c(F)cc1NS(=O)(=O)c1csc(-c2ccc([C@H]3CC[C@@H](C(C)C)CC3)c(F)c2F)n1 [Example 772]
< 100	COc1cc(C(=O)O)ccc1NS(=O)(=O)c1csc(C#CC2CC2)n1 [Example 214]
100 to 500	COc1cc(C(=O)O)ccc1NS(=O)(=O)c1cnc(-c2ccc(C#CC3CCCC3)cc2)s1 [Example 455, 4-((2-(4-(cyclopentylethynyl)phenyl)thiazole)-5-sulfonamido)-3-methoxybenzoic acid]
1000 to 100000	COc1cc(C(=O)O)ccc1NS(=O)(=O)c1csc(N2CCCC(CCc3ccccc3)C2)n1 (stereo not shown) [Example 277]
100 to 500	COc1cc(C(=O)O)ccc1NS(=O)(=O)c1coc(-c2ccc(C3CCCCC3)cc2)n1 [Example 419]
100 to 500	COc1cc(C(=O)O)c(F)cc1NS(=O)(=O)c1ccc2sc(-c3ccc(C4CCC(C)(C)CC4)cc3)nc2c1 [Example 664]
1000 to 100000	O=C(O)c1ccc(NS(=O)(=O)c2cnc(-c3ccc(F)cc3)s2)nc1 [Example 33]
< 100	COc1cc(C(=O)O)ccc1NS(=O)(=O)c1csc(C#CC2CCCC2)n1 [Example 217]
500 to 1000	COc1cc(C(=O)O)ccc1NS(=O)(=O)c1csc(N2CCCC(C(=O)c3ccccc3)C2)n1 (stereo not shown) [Example 286]
100 to 500	COc1cc(C(=O)O)ccc1NS(=O)(=O)c1csc(-c2ccc(-c3ccc(OC(F)(F)F)cc3)cc2)n1 [Example 280]
1000 to 100000	COc1cc(C(=O)O)ccc1NS(=O)(=O)c1ccc(-c2ccc(C3CCCCC3)cc2)cc1OC(F)(F)F [Example 325]
